Measurements published in patent US20110027226A1, “INDOLOPYRIDINES AS INHIBITORS OF THE KINESIN SPINDLE PROTEIN (EG5)” (4SC AG, priority 2007, published 2011).
Values belong to the compound of their own block, whether it stands above or below them.

Experiments:
[1] = system: RKO human colon adenocarcinoma cells (RKOp27 subclone, uninduced, proliferating); test: Alamar Blue cell viability assay, anti-proliferative/cytotoxic activity, RKO p27 uninduced (proliferating); assay type: cell-based; conditions: 72 hours incubation, read-out: −log EC50 [mol/l] RKO p27 uninduced (proliferating) (converted)
Experimental: The compounds are dissolved as 10 mM solutions in DMSO and subsequently diluted in semi-logarithmic steps. DMSO dilutions are further diluted 1:100 v:v into Dulbecco's modified Eagle's medium (DMEM) containing 10% fetal calf serum to a final concentration twice as much as the final concentration in the test. RKO subclones are seeded into 96 well flat bottom plates at a density of 4000 cells per well in a volume of 50 μl per well. 24 hours after seeding the 50 μl each of the compound dilutions in DMEM medium are added into each well of the 96 well plate. Each compound dilution is tested as triplicates. Wells containing untreated control cells are filled with 50 μl DMEM medium containing 1% DMSO. The cells are then incubated with the substances for 72 hours at 37° C. in a humidified atmosphere containing 5% carbon dioxide. To determine the viability of the cells, 10 μl of an Alamar Blue solution (Biosource) are added and the fluorescence is measured at an extinction of 544 nm and an emission of 590 nm. For the calculation of the cell viability the emission value from untreated cells is set as 100% viability and the emission rates of treated cells are set in relation to the values of untreated cells. Viabilities are expressed as % values. The Graphpad Prism program is used for the calculation of EC50 values for anti-proliferative/cytotoxic activity out of the obtained dose-response curves.
Each compound dilution is tested as triplicates. Wells containing untreated control cells are filled with 50 μl DMEM medium containing 1% DMSO. The cells are then incubated with the substances for 72 hours at 37° C. in a humidified atmosphere containing 5% carbon dioxide. To determine the viability of the cells, 10 μl of an Alamar Blue solution (Biosource) are added and the fluorescence is measured at an extinction of 544 nm and an emission of 590 nm. For the calculation of the cell viability the emission value from untreated cells is set as 100% viability and the emission rates of treated cells are set in relation to the values of untreated cells. Viabilities are expressed as % values. The Graphpad Prism program (GraphPad Software, Inc) is used for the calculation of EC50 values out of the obtained dose-response curves. Viability is compared of proliferating cells grown in the absence of the inducer Ponasterone A, versus viability of cells arrested by the expression of ectopic p27Kip1 induced by Ponasterone A.

Compound: CN1C(=O)[C@@H]2Cc3c([nH]c4ccc(Br)cc34)[C@@H](c3cccc(O)c3)N2C1=O (racemic) [Example 3, (3aSR,10RS)-6-Bromo-10-(3-hydroxy-phenyl)-2-methyl-3a,4,9,10-tetrahydro-2,9,10a-triaza-cyclopenta[b]fluorene-1,3-dione]
- EC50 [1]: ≤ 1 µM

Compound: Cc1ccc2[nH]c3c(c2c1)C[C@H]1C(=O)N(C)C(=O)N1[C@@H]3c1cccc(O)c1 (racemic) [Example 4, (3aSR,10RS)-10-(3-Hydroxy-phenyl)-2,6-dimethyl-3a,4,9,10-tetrahydro-2,9,10a-triaza-cyclopenta[b]fluorene-1,3-dione]
- EC50 [1]: ≤ 1 µM

Compound: CN1C(=O)[C@@H]2Cc3c([nH]c4cc(F)ccc34)[C@@H](c3cccc(O)c3)N2C1=O (racemic) [Example 2, (3aSR,10RS)-7-Fluoro-10-(3-hydroxy-phenyl)-2-methyl-3a,4,9,10-tetrahydro-2,9,10a-triaza-cyclopenta[b]fluorene-1,3-dione]
- melting point: 279 to 283 °C
- EC50 [1]: ≤ 1 µM

Further lines, with some results ahead:

- melting point: 348 to 352 °C
Compound: Cc1cccc2[nH]c3c(c12)C[C@H]1C(=O)N(C)C(=O)N1[C@@H]3c1cccc(O)c1 (racemic) [Example 5, (3aSR,10RS)-10-(3-Hydroxy-phenyl)-2,5-dimethyl-3a,4,9,10-tetrahydro-2,9,10a-triaza-cyclopenta[b]fluorene-1,3-dione]
- EC50 [1]: ≤ 1 µM

- melting point: 172 to 175 °C
Compound: COc1ccc2[nH]c3c(c2c1)C[C@H]1C(=O)N(C)C(=O)N1[C@@H]3c1cccc(O)c1 (racemic) [Example 7, (3aSR,10RS)-10-(3-Hydroxy-phenyl)-6-methoxy-2-methyl-3a,4,9,10-tetrahydro-2,9,10a-triaza-cyclopenta[b]fluorene-1,3-dione]
- EC50 [1]: ≤ 1 µM

- melting point: 282 to 285 °C
Compound: Cc1ccc2c3c([nH]c2c1)[C@@H](c1cccc(O)c1)N1C(=O)N(C)C(=O)[C@@H]1C3 (racemic) [Example 6, (3aSR,10RS)-10-(3-Hydroxy-phenyl)-2,7-dimethyl-3a,4,9,10-tetrahydro-2,9,10a-triaza-cyclopenta[b]fluorene-1,3-dione]
